According to patent US20160136284A1, “GLIOMA TREATMENT” (priority 2012, published 2016):

System: synaptophysin
Assay: Synaptophysin ELISA of rat brain homogenates after carboplatin infusion
Type: in vivo
Conditions: 72 hours after infusion
Description: Brain tissue homogenates were prepared from dissected samples of unfixed frozen hemispheres from rats at 72 hours after infusion of either artificial CSF (control) or carboplatin at concentrations of 0.36 and 0.72 mg/ml. Tissue samples incorporating the overlying cerebral cortex (approximately 200 mg) were dissected and homogenised for 75 s using a Precellys 24 automated tissue homogeniser (Stretton Scientific) with 2.3 mm silica beads (Biospec) in 1% SDS, 10 mM tris base (pH 6.0), 0.1 mM sodium chloride, and the protease inhibitors aprotinin (1 μg/ml; Sigma) and PMSF (10 μM; Sigma). The resultant crude tissue homogenates were centrifuged at 13,000 rpm for 15 min at 4° C., and the supernatants aliquoted and stored at −80° C.
Ninety-six-well plates (Nunc Maxisorp) were coated with primary rabbit anti-synaptophysin polyclonal antibody (Abeam) at a concentration of 1 μg/ml, and incubated overnight at 4° C. After 5 washes with wash buffer, non-specific binding was blocked with the addition of 1% BSA/PBS for 2 hours. After 5 washes with wash buffer, serial dilutions of recombinant synaptophysin or the supernatant of crude homogenates were added to wells in triplicate, and incubated at room temperature for 2 hours. […] Plates were read in a microplate reader at 405 nm (BMG Labtech).

N.N.O=C([O-])C1(C(=O)[O-])CCC1.[Pt+2] [carboplatin]
reduction in synaptophysin (indicative of toxicity) (0.36 mg/ml): not at 0.36 mg/ml
reduction in synaptophysin (indicative of toxicity) (0.72 mg/ml): observed at 0.72 mg/ml
